Source: article PMC3276110 (ACS Medicinal Chemistry Letters, 2011)

Tested on: multidrug-resistant Dd2 P. falciparum parasites
Assay: growth inhibition assay
Format: cell-based
Conditions: Plasmodium falciparum, DD2, 72 h, read-out: Dd2 GI50, Dd2 intraerythrocytic parasites, 72 h, DAPI

Row | SMILES | GI50
1 | C[C@@H]1CN([C@@H](C)CO)C(=O)c2cc(NC(=O)Nc3ccccc3)ccc2O[C@@H](C)CCCCO[C@H]1CN(C)C(=O)OC(C)(C)C [Compound 17] | > 1400 nM
2 | C[C@@H]1CN(CCO)C(=O)c2cc(NC(=O)Nc3ccccc3)ccc2O[C@@H](C)CCCCO[C@H]1CN(C)S(=O)(=O)c1ccc(F)cc1 [Compound 30] | 630 nM
